Patent publication US8993619B2, “Cyclic bridgehead ether DGAT1 inhibitors” (Novartis AG, priority 2012, dated 2015)

Tests used:
human (His)6DGAT1 = target: T1, human (His)6DGAT1 (Homo sapiens, UniProt O75907); experiment: DGAT1 Inhibition Assay; assay type: biochemical; details: membrane preparation from Sf9 cells overexpressing human (His)6DGAT1; LC/MS/MS readout
T1 construct: made in house; host or cells: Sf9 insect cells (membrane preparation)
T1 sequence (O75907 1-488): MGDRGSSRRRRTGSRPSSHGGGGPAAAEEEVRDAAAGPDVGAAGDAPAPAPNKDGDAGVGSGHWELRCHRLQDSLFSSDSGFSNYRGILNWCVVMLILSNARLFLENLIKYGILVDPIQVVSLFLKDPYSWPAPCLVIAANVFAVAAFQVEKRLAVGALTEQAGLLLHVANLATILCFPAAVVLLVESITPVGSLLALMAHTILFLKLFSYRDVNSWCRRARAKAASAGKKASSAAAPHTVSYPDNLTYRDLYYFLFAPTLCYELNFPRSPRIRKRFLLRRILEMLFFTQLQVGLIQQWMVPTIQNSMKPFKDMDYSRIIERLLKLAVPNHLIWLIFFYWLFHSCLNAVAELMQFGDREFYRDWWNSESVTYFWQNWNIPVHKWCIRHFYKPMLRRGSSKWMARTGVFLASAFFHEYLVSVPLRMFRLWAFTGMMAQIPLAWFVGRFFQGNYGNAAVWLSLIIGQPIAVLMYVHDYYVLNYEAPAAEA
Method: The enzyme preparation used in this assay is a membrane preparation from Sf9 cells overexpressing human (His)6DGAT1. During all steps samples were chilled to 4° C. Sf9 cells expressing human (His)6DGAT1 were thawed at room temperature and re-suspended at a 10:1 ratio (mL buffer/g of cells) in 50 mM HEPES, 1× Complete Protease Inhibitor, pH 7.5. The re-suspended pellet was homogenized for 1 min using a Brinkman PT 10/35 homogenizer with a 20 mm generator. Cells were lysed using Avestin Emulsiflex (chilled to 4° C.) at 10000-15000 psi. Lysate was centrifuged at 100,000×g for 1 h at 4° C. Supernatant was removed and pellets were re-suspended in 50 mM HEPES, 1× Complete Protease Inhibitor, pH 7.5 at ⅙ the volume of supernatant. Re-suspended pellets were pooled and homogenized with 10 strokes of a Glas-Col motor driven teflon pestle on setting 70. The protein concentration of the membrane preparation was quantified using BCA protein assay with 1% SDS. The membrane preparation was aliquoted, frozen on dry ice, and stored at −80° C.
For 50 mL, 25 mL of 0.2 M HEPES stock buffer, 0.5 mL of 1 M MgCl2 ([…]), and 24.5 mL of milli-Q H2O are added to the 55 mL Wheaton Potter-Elvehjem homogenizer. Enzyme preparation (0.1 mL) is added to buffer and the mixture is homogenized with 5 strokes on ice using the Glas-Col variable speed homogenizer system on setting 70.
For 50 mL, 0.5 mL 10 mM diolein is added to 9.5 mL of EtOH in a 50 mL Falcon screw cap conical centrifuge tube. Five mL of 10 mM sodium acetate pH 4.5 is added followed by 0.5 mL of 10 mM oleoyl-CoA. Finally, the remaining 4.5 mL of 10 mM sodium acetate pH 4.5 is added followed by 30 mL of milli-Q H20. The solution should be gently agitated by hand to induce mixing. The final concentrations of EtOH and sodium acetate are 20% and 2 mM, respectively.
Dry compounds are dissolved in the appropriate volume of DMSO to a final concentration of 10 mM. […] All dilutions are performed in DMSO in a Greiner 384-well microplate. • 1. 2 μL of compound in DMSO is added to the appropriate wells. […] 25 μL of enzyme mix is added to all wells and plate(s) are incubated for 10 min at RT. • 3. […] Plate(s) are vortexed using Troemner multi-tube vortexer (setting 7 for 10 sec). • 4. 25 μL of substrate mix is added to all wells. Plate(s) are vortexed using Troemner multi-tube vortexer (setting 7 for 10 sec). Plate(s) are incubated for 30 min at RT. • 5. 10 μL of 20% acetic acid quench is added to all wells. Plate(s) are vortexed using Troemner multi-tube vortexer (setting 7 for 10 sec). • 6. 50 μL of 1-butanol w/ glyceryl tripalmitoleate internal standard is added to all wells. • 7. Plate(s) are sealed with super pierce strong plate sealer using the thermo-sealer. • 8. Plate(s) are vortexed using Troemner multi-tube vortexer (setting 10 for 5 min). • 9. Plate(s) are centrifuged at 162×g (1000 rpm for GH-3.8 rotor) for 5 min using Beckman GS-6R tabletop centrifuge.
Where indicated, tripalmitolein was used as an internal standard to control for instrument variation.
Column: Thermo Betabasic 4, 2.1×20 mm
Solvent: 10 mM Ammonium Formate, 0.1% Formic Acid, 2% water, 98% Methanol
Isocratic run 0.5 ml per minute
Data is converted to % inhibition prior to curve fitting using the following equation: […]

DGAT1 in C2C12 cells = target: T2, DGAT1 in C2C12 cells (Mus musculus, UniProt Q9Z2A7); experiment: Cellular assay to measure activity of DGAT1 inhibitors in mammalian cells (C2C12); assay type: cell-based; details: C2C12 mouse skeletal muscle cells, 250 μM oleate, 2 h, LC/MS readout
T2 construct: endogenous in cells; host or cells: C2C12 mouse skeletal muscle cells
T2 sequence (Q9Z2A7 1-498): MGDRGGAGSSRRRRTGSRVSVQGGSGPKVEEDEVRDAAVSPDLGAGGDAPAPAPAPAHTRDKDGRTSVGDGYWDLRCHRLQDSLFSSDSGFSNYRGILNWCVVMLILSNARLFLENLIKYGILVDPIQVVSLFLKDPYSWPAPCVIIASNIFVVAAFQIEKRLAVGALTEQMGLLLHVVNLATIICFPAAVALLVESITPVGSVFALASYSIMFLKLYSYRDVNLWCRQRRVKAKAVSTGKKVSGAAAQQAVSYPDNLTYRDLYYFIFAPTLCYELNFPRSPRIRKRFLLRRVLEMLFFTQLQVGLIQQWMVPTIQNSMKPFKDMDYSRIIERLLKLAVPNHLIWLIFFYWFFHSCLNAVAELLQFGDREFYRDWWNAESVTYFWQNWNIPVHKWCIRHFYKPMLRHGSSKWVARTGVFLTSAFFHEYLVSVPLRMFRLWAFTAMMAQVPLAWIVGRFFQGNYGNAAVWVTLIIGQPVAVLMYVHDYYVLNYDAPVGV
Method: C2C12 cells are an immortal mouse skeletal muscle cell line showing an 8-fold enrichment form DGAT1 versus DGAT2. C2C12 cells were routinely cultured in 150 cm2 flasks with DMEM (25 mM glucose) containing 10% FBS, 4 m M L-glutamine, 100 U/ml penicillin and 100 μg/ml streptomycin (30 ml per flask), at 37° C., 5% CO2 and 95% humidity. All studies were performed on cells at passage 10 or less.
C2C12 cells were seeded in 96-well plates in DMEM containing […] glucose and 10% FBS, 18 h (at 37° C.) prior to assay (all wells of the plate are used). […] Compounds were added at 1:3 dilution, 11 points and DMSO control, the starting concentration was usually 40 μM. Each point was dosed in quadruplicate allowing 2 compounds to be dosed per plate. The medium was removed at the end of the incubation and 200 μl/well of 1-butanol added. The 1-butanol contained an internal standard, tripalmitolein (2 μM). The plates were sealed with an adhesive plate sealer and left at room temperature for at least 30 min, then spun down at 209×g for 5 min.
Butanolic extracts were transferred to 384-well LC-MS plates (80 μl/well) and the plate heatsealed with a foil plate sealer. The 384-well plates containing sample were spun down at 209×g for 5 min prior to loading on the LC-MS.
Where indicated, tripalmitolein was used as an internal standard to control for instrument variation. HPLC conditions as above.

## CC(C)(C)c1nnc(Nc2ccc(-c3ccc(C45CCC(CC(=O)O)(CC4)CO5)cc3)cc2)o1 [Example 20, 2-(1-(4′-((5-(tert-butyl)-1,3,4-oxadiazol-2-yl)amino)-[1,1′-biphenyl]-4-yl)-2-oxabicyclo[2.2.2]octan-4-yl)acetic acid]
Human (His)6DGAT1
  IC50: 120 nM
DGAT1 in C2C12 cells
  IC50: 16 nM

## O=C(O)CC12CCC(c3ccc(-c4ccc(Nc5nnc(C6CCC6)o5)cn4)cc3)(CC1)OC2 [Example 21, (1-{4-[5-(5-cyclobutyl-[1,3,4]oxadiazol-2-ylamino)-pyridin-2-yl]-phenyl}-2-oxa-bicyclo[2.2.2]oct-4-yl)-acetic acid]
Human (His)6DGAT1
  IC50: 360 nM
DGAT1 in C2C12 cells
  IC50: 944 nM

## CC(C)(C)c1nnc(Nc2ccc(-c3ccc(C45CCC(CC(=O)O)(CC4)O5)cc3)cc2)o1 [Example 22, 2-(4-(4′-((5-(tert-butyl)-1,3,4-oxadiazol-2-yl)amino)-[1,1′-biphenyl]-4-yl)-7-oxabicyclo[2.2.1]heptan-1-yl)acetic acid]
Human (His)6DGAT1
  IC50: 1700 nM
DGAT1 in C2C12 cells
  IC50: 296 nM

## CC(C)(C)c1nnc(Nc2ccc(-c3ccc(C45CCC(CCC(=O)O)(CC4)O5)cc3)cc2)o1 [Example 23, 3-(4-(4′-((5-(tert-butyl)-1,3,4-oxadiazol-2-yl)amino)-[1,1′-biphenyl]-4-yl)-7-oxabicyclo[2.2.1]heptan-1-yl)propanoic acid]
Human (His)6DGAT1
  IC50: 84 nM
DGAT1 in C2C12 cells
  IC50: 267 nM
